Structures are written as SMILES.

Holding throughout (experiment): In vitro kinase inhibition profile (Ambit Biosciences)
Format in all cases: binding
Common to all, as to conditions: reported as percent control, lower numbers indicate stronger activities

One assay deals with T1, ABL1(T315I) (Homo sapiens, UniProt P00519, T315I).
T1 construct: purchased Ambit Biosciences
As for the experimental part:
(§1) Up to 518 different kinases have been identified in humans. To determine the scope of inhibitory effects of a representative compound of Formula (I) on known kinases, Compound 82 was tested against 104 commercially available kinases (Ambit Biosciences™). 104 kinases included ABL1(E255K)-phosphorylated, ABL1(T315I)-phosphorylated, ABL1-phosphorylated, ACVR1B, ADCK3, AKT1, AKT2, ALK, AURKA, AURKB, AXL, BMPR2, BRAF, BRAF(V600E), BTK, CDK11, CDK2, CDK3, CDK7, CDK9, CHEK1, CSF1R, CSNK1D, CSNK1G2, DCAMKL1, DYRK1B, EGFR, EGFR(L858R), EPHA2, ERBB2, ERBB4, ERK1, FAK, FGFR2, FGFR3, FLT1, FLT3, FLT4, GSK3B, IGF1R, IKK-α, IKK-β, INSR, JAK2(JH1domain-catalytic), JAK3 (JH1 domain-catalytic), JNK 1, JNK2, JNK3, KIT, KIT(D816V), KIT(V559D,T6701), LKB1, LRRK2, LRRK2(G2019S), MAP3K4, MAPKAPK2, MARKS, MEK1, MEK2, MET, MKNK1, MKNK2, MLK1, MTOR, p38-alpha, p38-beta, PAK1, PAK2, PAK-4, PCTK1, PDGFRA, PDGFRB, PDPK1, PIK3C2B, PIK3CA, PIK3CG, PIM1, PIM2, PIM3, PKAC-alpha, PLK1, PLK3, PLK4, PRKCE, PYK2, RAF1, RET, R10K2, ROCK2, RSK2, SNARK, SRC, SRPK3, SYK, TAK1, TGFBR1, TIE2, TRKA, TSSK1B, TYK2(JH1domain-catalytic), ULK2, VEGFR2, YANK3 and ZAP70.
(§2) Inhibition activity of Compound 82 was reported as percent control where lower numbers indicate stronger activities.

For a further assay, the target named is T2, AURKB (Homo sapiens, UniProt Q96GD4).
T2 construct: purchased Ambit Biosciences
As to the method:
as §1, §2

Another assay deals with T3, AXL (Homo sapiens, UniProt P30530).
T3 construct: purchased Ambit Biosciences
As to the method:
as §1, §2

For the next assay, the target named is T4, FLT3 (Homo sapiens, UniProt P36888).
T4 construct: purchased Ambit Biosciences
As to the method: as §1, §2

The target of a further assay is T5, JAK3 (Homo sapiens, UniProt P52333).
T5 construct: JAK3 (JH1 domain-catalytic); purchased Ambit Biosciences
T5 sequence (P52333 822-1111 limits assumed): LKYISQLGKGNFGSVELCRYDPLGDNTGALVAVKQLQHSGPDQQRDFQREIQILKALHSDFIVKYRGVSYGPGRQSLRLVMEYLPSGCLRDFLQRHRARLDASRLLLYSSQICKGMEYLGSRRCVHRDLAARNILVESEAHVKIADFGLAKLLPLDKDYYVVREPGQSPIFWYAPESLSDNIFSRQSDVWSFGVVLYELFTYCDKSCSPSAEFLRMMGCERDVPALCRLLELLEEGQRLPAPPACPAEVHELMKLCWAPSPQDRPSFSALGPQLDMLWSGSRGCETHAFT
As to the method: as §1, §2

A further assay deals with T6, KIT (Homo sapiens, UniProt P10721).
T6 construct: purchased Ambit Biosciences
As for the experimental part: as §1, §2

For another assay, the target named is T7, KIT(D816V) (Homo sapiens, UniProt P10721, D816V).
T7 construct: purchased Ambit Biosciences
As for the experimental part:
as §1, §2

A further assay deals with T8, KIT(V559D,T6701) (Homo sapiens, UniProt P10721, T670I/V559D).
T8 construct: purchased Ambit Biosciences
As for the experimental part: as §1, §2

A further assay concerns the target T9, MKNK2 (Homo sapiens, UniProt Q9HBH9).
T9 construct: purchased Ambit Biosciences
As for the experimental part: as §1, §2

The next assay concerns the target T10, MLK1 (Homo sapiens, UniProt P80192).
T10 construct: purchased Ambit Biosciences
As for the experimental part:
as §1, §2

In another assay the target is T11, PDGFRB (Homo sapiens, UniProt P09619).
T11 construct: purchased Ambit Biosciences
T11 sequence (P09619 33-1106): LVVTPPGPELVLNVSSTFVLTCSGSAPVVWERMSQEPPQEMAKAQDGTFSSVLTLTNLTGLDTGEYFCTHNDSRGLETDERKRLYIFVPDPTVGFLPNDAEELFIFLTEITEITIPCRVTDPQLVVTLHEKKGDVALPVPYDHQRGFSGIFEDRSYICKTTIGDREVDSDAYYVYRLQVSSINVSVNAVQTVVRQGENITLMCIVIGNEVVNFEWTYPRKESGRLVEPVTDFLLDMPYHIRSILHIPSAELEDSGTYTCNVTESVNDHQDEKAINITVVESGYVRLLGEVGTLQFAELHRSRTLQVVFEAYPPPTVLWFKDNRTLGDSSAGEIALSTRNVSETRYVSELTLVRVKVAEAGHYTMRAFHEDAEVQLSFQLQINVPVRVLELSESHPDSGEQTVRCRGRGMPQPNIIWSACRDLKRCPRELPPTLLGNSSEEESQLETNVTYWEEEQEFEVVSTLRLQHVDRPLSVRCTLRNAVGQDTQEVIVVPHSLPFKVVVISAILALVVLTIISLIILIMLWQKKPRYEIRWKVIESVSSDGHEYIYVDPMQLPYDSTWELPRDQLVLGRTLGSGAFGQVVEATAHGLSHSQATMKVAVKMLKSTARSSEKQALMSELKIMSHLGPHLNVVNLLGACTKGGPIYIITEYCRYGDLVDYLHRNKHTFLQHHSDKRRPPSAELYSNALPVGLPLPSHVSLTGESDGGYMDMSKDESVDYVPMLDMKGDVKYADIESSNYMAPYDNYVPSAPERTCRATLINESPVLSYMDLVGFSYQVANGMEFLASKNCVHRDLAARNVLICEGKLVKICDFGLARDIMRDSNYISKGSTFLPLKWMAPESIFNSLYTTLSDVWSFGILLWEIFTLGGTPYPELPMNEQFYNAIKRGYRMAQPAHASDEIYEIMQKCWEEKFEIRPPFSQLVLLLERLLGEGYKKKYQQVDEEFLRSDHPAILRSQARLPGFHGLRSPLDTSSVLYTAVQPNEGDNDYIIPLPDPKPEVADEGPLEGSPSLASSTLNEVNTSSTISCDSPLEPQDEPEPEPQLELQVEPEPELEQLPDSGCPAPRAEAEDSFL
As to the method:
as §1, §2

A further assay has as its target T12, PLK3 (Homo sapiens, UniProt Q9H4B4).
T12 construct: purchased Ambit Biosciences
As to the method:
as §1, §2

In a further assay the target is T13, RET (Homo sapiens, UniProt P07949).
T13 construct: purchased Ambit Biosciences
As for the experimental part:
as §1, §2

Another assay concerns the target T14, SNARK (Homo sapiens, UniProt Q9H093).
T14 construct: purchased Ambit Biosciences
As to the method:
as §1, §2

In another assay the target is T15, SRPK3 (Homo sapiens, UniProt Q9UPE1).
T15 construct: purchased Ambit Biosciences
T15 sequence (Q9UPE1 whole entry): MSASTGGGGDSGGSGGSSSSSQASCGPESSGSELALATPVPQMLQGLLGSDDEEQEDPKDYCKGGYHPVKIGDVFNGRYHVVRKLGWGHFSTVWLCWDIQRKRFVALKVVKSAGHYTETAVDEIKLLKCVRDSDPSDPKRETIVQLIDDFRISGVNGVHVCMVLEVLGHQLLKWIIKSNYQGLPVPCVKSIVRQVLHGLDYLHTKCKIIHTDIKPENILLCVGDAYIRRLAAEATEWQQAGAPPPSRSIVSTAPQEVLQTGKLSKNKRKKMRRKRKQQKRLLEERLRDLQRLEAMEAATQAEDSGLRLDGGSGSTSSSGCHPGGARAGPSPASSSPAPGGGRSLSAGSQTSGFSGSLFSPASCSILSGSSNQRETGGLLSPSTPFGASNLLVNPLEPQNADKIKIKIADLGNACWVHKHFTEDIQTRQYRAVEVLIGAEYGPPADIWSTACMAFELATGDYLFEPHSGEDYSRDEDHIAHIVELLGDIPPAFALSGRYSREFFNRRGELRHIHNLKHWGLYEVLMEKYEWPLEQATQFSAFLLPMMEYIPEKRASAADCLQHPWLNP
As to the method:
as §1, §2

The next assay has as its target T16, SYK (Homo sapiens, UniProt P43405).
T16 construct: Purified full-length human SYK, ZAP70, PIM1, PYK2; purchased Carna Biosciences
As to the method:
as §1, §2

The next assay concerns the target T17, TAK1 (Homo sapiens, UniProt O43318).
T17 construct: purchased Ambit Biosciences
As for the experimental part:
as §1, §2

In another assay the target is T18, TYK2 (Homo sapiens, UniProt P29597).
T18 construct: TYK2(JH1domain-catalytic); purchased Ambit Biosciences
As to the method: as §1, §2

In a further assay the target is T19, ZAP70 (Homo sapiens, UniProt P43403).
T19 construct: Purified full-length human SYK, ZAP70, PIM1, PYK2; purchased Carna Biosciences
T19 sequence (P43403 1-619): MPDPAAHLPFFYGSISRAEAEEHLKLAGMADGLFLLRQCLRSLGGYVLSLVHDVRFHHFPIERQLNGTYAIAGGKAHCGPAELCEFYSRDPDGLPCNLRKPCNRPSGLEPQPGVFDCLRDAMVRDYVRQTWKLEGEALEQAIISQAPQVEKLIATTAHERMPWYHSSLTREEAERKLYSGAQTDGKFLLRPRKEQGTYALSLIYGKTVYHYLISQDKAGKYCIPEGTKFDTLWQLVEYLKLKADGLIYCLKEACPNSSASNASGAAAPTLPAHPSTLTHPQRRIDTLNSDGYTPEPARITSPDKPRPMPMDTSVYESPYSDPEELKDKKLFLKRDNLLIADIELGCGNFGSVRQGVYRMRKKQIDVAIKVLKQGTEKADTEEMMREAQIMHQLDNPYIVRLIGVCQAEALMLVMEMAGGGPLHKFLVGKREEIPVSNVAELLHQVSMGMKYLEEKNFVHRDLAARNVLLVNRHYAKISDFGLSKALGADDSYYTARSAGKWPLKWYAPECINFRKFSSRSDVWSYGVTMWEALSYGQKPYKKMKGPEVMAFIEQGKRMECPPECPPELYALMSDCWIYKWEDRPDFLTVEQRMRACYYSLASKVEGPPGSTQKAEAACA
As for the experimental part: as §1, §2

The next assay has as its target JAK2 (Homo sapiens, UniProt O60674). On the set-up: JAK2(JH1domain-catalytic); purchased Ambit Biosciences. As to the method:
as §1, §2

T12 sequence (Q9H4B4 whole entry): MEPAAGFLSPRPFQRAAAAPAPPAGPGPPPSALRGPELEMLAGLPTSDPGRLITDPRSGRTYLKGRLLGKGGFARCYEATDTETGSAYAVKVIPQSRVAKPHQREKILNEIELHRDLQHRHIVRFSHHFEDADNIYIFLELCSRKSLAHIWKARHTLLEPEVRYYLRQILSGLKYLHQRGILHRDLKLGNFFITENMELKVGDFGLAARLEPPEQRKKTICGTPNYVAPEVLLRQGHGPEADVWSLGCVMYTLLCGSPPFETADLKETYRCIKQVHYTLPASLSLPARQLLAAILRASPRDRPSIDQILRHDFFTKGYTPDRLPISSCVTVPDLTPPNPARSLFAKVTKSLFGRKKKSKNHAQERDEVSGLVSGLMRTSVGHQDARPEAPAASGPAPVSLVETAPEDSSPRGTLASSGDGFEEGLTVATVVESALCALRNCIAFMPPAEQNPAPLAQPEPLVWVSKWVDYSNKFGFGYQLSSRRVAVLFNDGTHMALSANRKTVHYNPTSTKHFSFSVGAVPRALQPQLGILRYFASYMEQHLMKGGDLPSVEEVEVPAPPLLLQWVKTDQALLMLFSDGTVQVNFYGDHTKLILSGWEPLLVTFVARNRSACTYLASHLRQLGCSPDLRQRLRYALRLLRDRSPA
T9 sequence (Q9HBH9 whole entry): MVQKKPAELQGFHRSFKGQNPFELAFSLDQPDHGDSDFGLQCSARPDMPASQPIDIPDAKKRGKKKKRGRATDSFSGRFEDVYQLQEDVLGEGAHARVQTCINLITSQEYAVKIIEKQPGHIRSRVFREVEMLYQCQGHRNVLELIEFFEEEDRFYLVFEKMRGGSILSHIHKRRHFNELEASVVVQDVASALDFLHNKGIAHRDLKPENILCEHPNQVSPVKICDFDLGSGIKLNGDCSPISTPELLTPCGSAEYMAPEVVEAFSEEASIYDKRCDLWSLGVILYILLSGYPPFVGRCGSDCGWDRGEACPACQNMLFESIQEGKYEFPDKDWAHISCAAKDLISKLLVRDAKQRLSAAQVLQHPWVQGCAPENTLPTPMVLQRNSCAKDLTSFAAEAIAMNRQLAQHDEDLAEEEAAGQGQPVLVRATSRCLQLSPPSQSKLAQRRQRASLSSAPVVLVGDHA
T10 sequence (P80192 whole entry): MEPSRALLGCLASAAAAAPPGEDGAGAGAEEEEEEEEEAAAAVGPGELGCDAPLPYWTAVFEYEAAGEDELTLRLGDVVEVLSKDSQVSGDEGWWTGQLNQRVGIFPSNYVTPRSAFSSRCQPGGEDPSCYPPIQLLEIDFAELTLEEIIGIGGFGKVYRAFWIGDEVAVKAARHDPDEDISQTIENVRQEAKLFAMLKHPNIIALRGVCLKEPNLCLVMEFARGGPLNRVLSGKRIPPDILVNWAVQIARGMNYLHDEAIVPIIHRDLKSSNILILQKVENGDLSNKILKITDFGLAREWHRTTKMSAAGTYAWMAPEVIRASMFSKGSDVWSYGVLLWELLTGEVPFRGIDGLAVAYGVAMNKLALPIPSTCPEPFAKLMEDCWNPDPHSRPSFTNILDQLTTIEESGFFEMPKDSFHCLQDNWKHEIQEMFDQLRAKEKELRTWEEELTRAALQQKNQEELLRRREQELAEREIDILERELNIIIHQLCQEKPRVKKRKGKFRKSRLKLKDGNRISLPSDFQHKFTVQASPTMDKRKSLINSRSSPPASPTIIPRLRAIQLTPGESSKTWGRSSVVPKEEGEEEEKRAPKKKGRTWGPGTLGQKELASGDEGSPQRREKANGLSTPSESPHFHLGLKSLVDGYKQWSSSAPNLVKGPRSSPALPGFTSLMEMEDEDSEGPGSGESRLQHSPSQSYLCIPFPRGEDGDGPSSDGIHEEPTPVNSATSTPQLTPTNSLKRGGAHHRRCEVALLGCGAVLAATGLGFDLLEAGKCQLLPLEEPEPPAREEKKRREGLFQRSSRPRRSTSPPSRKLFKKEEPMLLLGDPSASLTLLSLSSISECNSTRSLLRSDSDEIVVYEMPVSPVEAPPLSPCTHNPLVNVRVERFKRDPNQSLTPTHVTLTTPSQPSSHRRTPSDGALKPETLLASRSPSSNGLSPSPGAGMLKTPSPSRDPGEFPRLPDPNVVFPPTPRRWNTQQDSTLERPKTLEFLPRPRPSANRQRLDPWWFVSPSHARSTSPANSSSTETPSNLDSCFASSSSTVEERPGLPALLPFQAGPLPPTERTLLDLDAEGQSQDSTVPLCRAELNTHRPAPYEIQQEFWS
T14 sequence (Q9H093 whole entry): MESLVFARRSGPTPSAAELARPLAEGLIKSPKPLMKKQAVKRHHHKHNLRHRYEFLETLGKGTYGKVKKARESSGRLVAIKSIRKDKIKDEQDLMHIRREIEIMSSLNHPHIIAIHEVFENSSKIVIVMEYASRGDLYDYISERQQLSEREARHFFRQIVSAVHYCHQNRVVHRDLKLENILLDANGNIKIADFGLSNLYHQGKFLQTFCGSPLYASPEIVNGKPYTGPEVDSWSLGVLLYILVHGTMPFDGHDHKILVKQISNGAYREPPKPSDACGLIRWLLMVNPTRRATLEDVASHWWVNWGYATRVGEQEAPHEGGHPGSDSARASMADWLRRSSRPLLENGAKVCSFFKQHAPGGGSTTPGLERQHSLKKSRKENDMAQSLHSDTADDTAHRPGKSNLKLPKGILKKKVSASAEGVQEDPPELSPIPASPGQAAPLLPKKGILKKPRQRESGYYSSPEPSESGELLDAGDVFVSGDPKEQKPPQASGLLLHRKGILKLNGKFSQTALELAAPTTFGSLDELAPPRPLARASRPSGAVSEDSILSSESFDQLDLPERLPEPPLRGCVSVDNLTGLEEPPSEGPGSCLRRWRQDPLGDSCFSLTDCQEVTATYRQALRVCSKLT
JAK2, sequence (O60674 849-1124 limits assumed): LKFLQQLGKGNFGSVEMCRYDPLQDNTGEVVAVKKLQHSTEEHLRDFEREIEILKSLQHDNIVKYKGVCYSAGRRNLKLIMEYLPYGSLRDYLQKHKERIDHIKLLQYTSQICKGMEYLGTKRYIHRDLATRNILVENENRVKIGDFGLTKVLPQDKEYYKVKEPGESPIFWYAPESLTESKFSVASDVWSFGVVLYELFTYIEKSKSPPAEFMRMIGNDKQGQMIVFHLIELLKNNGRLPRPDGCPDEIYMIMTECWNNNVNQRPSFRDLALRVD

For `Cc1cc(C)cc(Nc2ncc(F)c(-n3cc(C)c(CN4CC[C@@H](O)C4)c3)n2)c1` [Compound 82, (R)-1-((1-(2-(3,5-dimethylphenyl-amino)-5-fluoropyrimidin-4-yl)-4-methyl-1H-pyrrol-3-yl)methyl) pyrrolidin-3-ol], on ABL1(T315I), the “% of control ABL1(T315I)” value is 35%. Besides, on AURKB, the “% of control binding” value is recorded as 31%. In addition, at AXL, the “% of control AXL” value was 31%. For the same compound, the “% of control” value at FLT3 is listed as 1.1%; at KIT(D816V), 0.45%; on MLK1, 22%; on TYK2, 21%; at JAK2, 3%. For the same compound, the “% of control JAK3” value at JAK3 is 5.4%. Moreover, the “% of control (remaining binding)” value on KIT amounted to 26%. This compound returned a Percent of control on KIT(V559D,T6701) of 28%. Moreover, the “% of control binding MKNK2” value at MKNK2 was 34%. Also, the “% of control PDGFRB” value at PDGFRB was 1.8%. Besides, on PLK3, the “percent of control (lower = stronger binding)” value was 11%. Also, the “RET binding, % of control” value on RET was 32%. For the same compound, at SNARK, the “% of control SNARK” value was 4.2%. For the same compound, the “% of control SRPK3 binding” value on SRPK3 was determined as 25%. Besides, on SYK, the “% of control SYK” value was found to be 1%. Moreover, the “% of control remaining TAK1 binding” value at TAK1 is given as 22%. Further, on ZAP70, the “% of control ZAP70 binding (lower = stronger)” value came to 34%.
